# Reference: patent publication US11739122B2, “Glycopeptide antibiotic compounds, methods for producing the same, and uses thereof” (Academia Sinica, priority 2019, dated 2023)
# pKd: −log10 of the molar value. Several values for one entry are separate records, joined by “and”; a condition that tells them apart may be missing. Equal entries are not always repeated. Structures can show the parent of a compound that is named as a salt. Where two headings read alike, the source gives them in different places.
# Experiments:
# HEK293T cells = test: Alamar Blue cell viability assay; assay type: cell-based, human; details: up to 100 μgmL^−1; 2 and 24 h
# Protocol: The Alamar Blue (AB) assay, which includes a redox indicator that changes color or emits fluorescence in response to a metabolic activity, was used to assess in vitro mammalian cell cytotoxicity (human embryonic kidney cells (HEK293T)) upon an antibiotic treatment. 2×10^5 cellsmL^−1 were allowed to adhere on 96-well plates overnight at 37° C. in a humidified incubator (5% CO2 atmosphere). Tested compounds were dissolved in 50% DMSO to make 1 mgmL^−1 of a stock solution. Cells were separately aliquoted with 5 μL of a test compound (final concentration: 100 μgmL^−1) and incubated. PBS and 50% DMSO, which was used to dissolve compounds, served as a control. Cell viability was triplicated and assessed at 2 and 24 hour time points for each test compound, on which the measurements followed the manufacturer protocol.
# E. faecalis ATCC 29302 = test: MIC, broth microdilution; assay type: cell-based; details: EF ATCC 29302
# Protocol: (§1) Determination of Minimal Inhibitory Concentration (MIC) for Vancomycin, Teicoplanin and Tei-Analogs Versus Selected Strains
# (§2) MICs were determined by the broth microdilution method. Specifically, 12 Colonies of the test strain were picked up from 18-24 hour agar cultures and freshly inoculated into broth mediums until reaching the turbidity of a 0.5 McFarland standard. The broth culture was adjusted with broth medium to approximately 1×10^8 CFUmL^−1. […] The plates were incubated in 37° C. for 18-24 hours and monitored for the wells of the positive control, where cells grew, and the wells of the negative control, where wells should not grow. The MIC value was determined for the concentration of a test compound, at which there was no visible growth in the well.
# MRSA ATCC 700698 hVISA = test: MIC, broth microdilution; assay type: cell-based, Staphylococcus aureus; details: MRSA ATCC 700698 hVISA
# Protocol: as §1, §2
# S. aureus ATCC 29213 = test: MIC, broth microdilution; assay type: cell-based, Staphylococcus aureus; details: SA ATCC 29213
# Protocol: as §1, §2
# MRSA ATCC 700789 VRSA = test: MIC, broth microdilution; assay type: cell-based, Staphylococcus aureus; details: MRSA ATCC 700789 VRSA
# Protocol: as §1, §2
# MRSA ATCC 43300 = test: MIC, broth microdilution; assay type: cell-based, Staphylococcus aureus; details: MRSA ATCC 43300
# Protocol: as §1, §2
# MRSA ATCC BAA-39 = test: MIC, broth microdilution; assay type: cell-based, Staphylococcus aureus; details: MRSA ATCC BAA-39
# Protocol: as §1, §2
# MRSA ATCC BAA-38 = test: MIC, broth microdilution; assay type: cell-based, Staphylococcus aureus; details: MRSA ATCC BAA-38
# Protocol: as §1, §2
# MRSA ATCC 700787 VRSA = test: MIC, broth microdilution; assay type: cell-based, Staphylococcus aureus; details: MRSA ATCC 700787 VRSA
# Protocol: as §1, §2
# MRSA ATCC BAA-44 = test: MIC, broth microdilution; assay type: cell-based, Staphylococcus aureus; details: MRSA ATCC BAA-44
# Protocol: as §1, §2
# VRE ATCC 700802 (vanB) = test: MIC, broth microdilution; assay type: cell-based, enterococci; details: VRE ATCC 700802 (vanB)
# Protocol: as §1, §2
# VRE ATCC 700425 (vanC) = test: MIC, broth microdilution; assay type: cell-based, enterococci; details: VRE ATCC 700425 (vanC)
# Protocol: as §1, §2
# VRE ATCC 700221 (vanA) = test: MIC, broth microdilution; assay type: cell-based, enterococci; details: VRE ATCC 700221 (vanA)
# Protocol: as §1, §2
# Dbv27 = Dbv27 (Nonomuraea gerenzanensis, UniProt Q7WZ64); test: ITC binding affinity; details: ITC versus Dbv27
# Sequence of Dbv27 (Q7WZ64 entry or part of it): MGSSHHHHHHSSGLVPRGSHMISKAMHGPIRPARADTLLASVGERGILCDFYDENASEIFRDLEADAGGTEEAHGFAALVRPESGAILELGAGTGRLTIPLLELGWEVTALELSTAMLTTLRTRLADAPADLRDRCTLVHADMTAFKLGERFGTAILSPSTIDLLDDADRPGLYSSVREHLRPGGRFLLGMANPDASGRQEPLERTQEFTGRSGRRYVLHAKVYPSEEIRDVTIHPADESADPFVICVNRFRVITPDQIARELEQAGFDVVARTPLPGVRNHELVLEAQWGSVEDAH
# Protocol: Isothermal Titration Calormetry (ITC) Analysis
# A stock solution (50 mM) was prepared by dissolving r6,GlcNAc pseudoaglycone (9) in 50% DMSO. The 1 mM protein solutions of Orf2*, Orf2*T and Dbv27 were prepared in a 50 mM HEPES buffer solution at pH 8.0. The solution (50 mM HEPES, pH8.0 and 10% DMSO) that contained compound 9 (1 mM) or S-adenosylmethionine (SAM) (1 mM) in a 40 μL injection syringe was titrated into the Orf2*, Orf2*T or Dbv27 (0.1 mM) protein solution, which was placed in the sample cell of a 200 μL volume. Each titration consisted of 16 injections of a 2 μL4 s^−1 duration in an interval of 150 seconds. Data analysis was performed by software.
# A. baumannii ATCC 19606 [1] = test: In vivo efficacy, intranasal A. baumannii infection; parameters: species or system mice; details: BAL fluid, 24 hours post-inoculation; 24 and kanamycin 30, amikacin 15 mgkg^−1
# Protocol: In Vivo Efficacy of r6,N-Acyl-Glc Tei Analogs
# Female C57BL/6 mice (6 weeks of age; about 16-19 g, 3-5 mice per group) were intraperitoneally inoculated with 300 μL of MRSA ATCC 700787 suspension (about 10^7 CFUmL^−1). For intranasal A. baumannii (ATCC 19606) inoculation, mice were anesthetized, and inoculated intranasally with about 10^7-10^8 CFUmL^−1 A. baumannii in 50 μL of PBS. Treatments were started 1 hour after the bacterial challenge. The dose administration to mice was set as follows: teicoplanin (1) or r6,C8-Tei analog (14) 20 mgkg^−1 was intraperitoneally injected to MRSA-infected mice; amikacin (15 mgkg^−1), teicoplanin (1) (30 mgkg^−1), kanamycin (30 mgkg^−1) or r1,Me2-r6,guanidino-C8 analog (24) (30 mgkg^−1) was intraperitoneally injected to AB-infected mice. To assess bacteraemia, the test animals were sacrificed to collect 1 mL of peritoneal fluid (PF) for MRSA counting or the lungs were lavaged to collect 0.6 mL bronchoalveolar lavage (BAL) fluid for A. baumannii counting.
# For AB (ATCC 19606), female C57BL/6 mice were first anesthetized by intraperitoneal injection of zoletil and then intranasally inoculated with 50 μL of bacteria in a PBS solution (about 10^7-10^8 CFUmL^−1). The treatment started 1 hour post-infection with a single dose of compound 24 (30 mgkg^−1), compound 1 (30 mgkg^−1), amikacin (15 mgkg^−1), or kanamycin (30 mgkg^−1), where saline/compound 1 and amikacin/kanamycin respectively served as negative and positive controls. To assess the density of bacteraemia, the lungs of mice were lavaged to collect 0.6 mL bronchoalveolar lavage (BAL) fluid from each mouse at 24 hours post-inoculation. For saline/compound 1 treated controls, the bacterial load was counted (about 4 log CFUmL^−1, FIG. 4B), where the bacterial load was reduced by 0.5 or 1 log CFUmL^−1 with the treatment of amikacin/kanamycin or compound 24, respectively.
# A. baumannii ATCC 19606 [2] = test: MIC, broth microdilution; assay type: cell-based, Acinetobacter baumannii; details: Acinetobacter baumannii
# Protocol: as §1, §2
smiles,measurement,setting,value
N[C@H]1C(=O)N[C@@H]2Cc3ccc(c(Cl)c3)Oc3cc4cc(c3O)Oc3ccc(cc3Cl)[C@@H](O[C@@H]3O[C@H](CO)[C@@H](O)[C@H](O)[C@H]3NC(=O)CCCCc3ccc(F)cc3)[C@@H]3NC(=O)[C@H](NC(=O)[C@@H]4NC(=O)[C@@H](NC2=O)c2cc(O)cc(c2)Oc2cc1ccc2O)c1ccc(O)c(c1)-c1c(O)cc(O)cc1[C@@H](C(=O)O)NC3=O [Compound 18],cytotoxicity to HEK293T cells,HEK293T cells,did not exhibit any observable toxicity
same,MIC,E. faecalis ATCC 29302,0.25 µg/mL
same,MIC,MRSA ATCC 700698 hVISA,0.016 µg/mL
same,MIC,S. aureus ATCC 29213,0.063 µg/mL
same,MIC,MRSA ATCC 700789 VRSA,0.5 µg/mL
same,MIC,MRSA ATCC 43300,0.031 µg/mL
same,MIC,MRSA ATCC BAA-39,0.063 µg/mL
same,MIC,MRSA ATCC BAA-38,0.016 µg/mL
same,MIC,MRSA ATCC 700787 VRSA,0.125 µg/mL
same,MIC,MRSA ATCC BAA-44,0.016 µg/mL
same,MIC,VRE ATCC 700802 (vanB),0.25 µg/mL
same,MIC,VRE ATCC 700425 (vanC),1 µg/mL
same,MIC,VRE ATCC 700221 (vanA),>16 µg/mL
"C[S+](CC[C@H](N)C(=O)[O-])C[C@H]1O[C@@H](n2cnc3c(N)ncnc32)[C@H](O)[C@@H]1O (stereo partly drawn) [SAM, S-adenosylmethionine, reference compound]",pKd,Dbv27,5.00
"N[C@H]1[C@H](O[C@@H]2c3ccc(c(Cl)c3)Oc3cc4cc(c3O)Oc3ccc(cc3Cl)C[C@H]3NC(=O)[C@H](N)c5ccc(O)c(c5)Oc5cc(O)cc(c5)[C@H](NC3=O)C(=O)N[C@H]4C(=O)N[C@H]3C(=O)N[C@@H]2C(=O)N[C@H](C(=O)O)c2cc(O)cc(O)c2-c2cc3ccc2O)O[C@H](CO)[C@@H](O)[C@@H]1O [Compound 12, r6,Glm pseudoaglycone]",pKd,Dbv27,5.30
"NC[C@H]1O[C@H](O[C@H]2[C@H](O)[C@@H](O[C@H]3O[C@H](CO)[C@@H](O)[C@H](N)[C@H]3O)[C@H](N)C[C@@H]2N)[C@H](O)[C@@H](O)[C@@H]1O [kanamycin sulfate, reference compound]",bacterial load reduced by,A. baumannii ATCC 19606 [1],0.5 log CFUmL^−1
same,MIC,A. baumannii ATCC 19606 [2]; ATCC19606,25 µM and 14.6 µg/mL
same,MIC,"A. baumannii ATCC 19606 [2]; ATCC19606, read-out: MIC on AB",14.6 µg/mL
